Like-named read-outs stand apart in the source and are kept apart here.
Legend:
Assay in all cases: Ambit kinase profiling, competition binding
LCK = molecular target: T1, LCK (Homo sapiens, UniProt P06239)
T1 construct: purchased Ambit Biosciences (KINOMEscan)
Description: (§1) Also included in the kinase profile are four isoforms of PKC (δ, ε, η, θ) and eight isoforms of CAMKs (CAMKIα, δ, γ; CAMKIIα, β, δ, γ; CAMK4).
(§2) The global kinase profiling experiment was performed by Ambit Biosciences.

EPHA8 = molecular target: T2, EPHA8 (Homo sapiens, UniProt P29322)
T2 construct: purchased Ambit Biosciences (KINOMEscan)
T2 sequence (P29322 28-1005): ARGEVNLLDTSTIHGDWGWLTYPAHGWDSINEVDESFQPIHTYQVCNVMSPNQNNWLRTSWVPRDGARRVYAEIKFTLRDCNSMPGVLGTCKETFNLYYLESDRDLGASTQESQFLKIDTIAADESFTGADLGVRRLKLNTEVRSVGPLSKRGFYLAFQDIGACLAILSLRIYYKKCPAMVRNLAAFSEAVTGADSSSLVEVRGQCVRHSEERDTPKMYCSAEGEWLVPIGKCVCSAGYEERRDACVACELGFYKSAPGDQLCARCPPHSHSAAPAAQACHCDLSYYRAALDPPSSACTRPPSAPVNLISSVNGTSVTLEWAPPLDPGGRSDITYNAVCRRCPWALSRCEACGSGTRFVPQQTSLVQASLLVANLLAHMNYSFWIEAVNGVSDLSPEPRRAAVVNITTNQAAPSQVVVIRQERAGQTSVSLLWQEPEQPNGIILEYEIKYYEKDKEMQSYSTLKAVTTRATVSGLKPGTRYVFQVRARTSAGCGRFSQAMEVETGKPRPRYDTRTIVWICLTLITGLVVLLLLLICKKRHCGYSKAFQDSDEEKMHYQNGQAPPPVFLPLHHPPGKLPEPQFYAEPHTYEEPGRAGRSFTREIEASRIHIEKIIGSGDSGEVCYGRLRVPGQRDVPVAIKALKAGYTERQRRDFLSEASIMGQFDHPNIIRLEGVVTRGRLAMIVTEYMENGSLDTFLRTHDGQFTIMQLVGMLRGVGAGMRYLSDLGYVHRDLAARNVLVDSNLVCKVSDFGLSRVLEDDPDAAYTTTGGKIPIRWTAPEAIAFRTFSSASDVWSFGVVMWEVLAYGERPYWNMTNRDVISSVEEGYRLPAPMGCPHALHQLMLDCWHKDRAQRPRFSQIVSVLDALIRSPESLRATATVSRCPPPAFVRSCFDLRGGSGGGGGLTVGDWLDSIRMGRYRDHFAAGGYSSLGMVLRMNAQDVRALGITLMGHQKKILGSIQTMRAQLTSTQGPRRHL
Description: as §1, §2

TGFBR2 = molecular target: T3, TGFBR2 (Homo sapiens, UniProt P37173)
T3 construct: purchased Ambit Biosciences (KINOMEscan)
Description: as §1, §2

PRKD3 = molecular target: T4, PRKD3 (Homo sapiens, UniProt O94806)
T4 construct: purchased Ambit Biosciences (KINOMEscan)
T4 sequence (O94806 1-890): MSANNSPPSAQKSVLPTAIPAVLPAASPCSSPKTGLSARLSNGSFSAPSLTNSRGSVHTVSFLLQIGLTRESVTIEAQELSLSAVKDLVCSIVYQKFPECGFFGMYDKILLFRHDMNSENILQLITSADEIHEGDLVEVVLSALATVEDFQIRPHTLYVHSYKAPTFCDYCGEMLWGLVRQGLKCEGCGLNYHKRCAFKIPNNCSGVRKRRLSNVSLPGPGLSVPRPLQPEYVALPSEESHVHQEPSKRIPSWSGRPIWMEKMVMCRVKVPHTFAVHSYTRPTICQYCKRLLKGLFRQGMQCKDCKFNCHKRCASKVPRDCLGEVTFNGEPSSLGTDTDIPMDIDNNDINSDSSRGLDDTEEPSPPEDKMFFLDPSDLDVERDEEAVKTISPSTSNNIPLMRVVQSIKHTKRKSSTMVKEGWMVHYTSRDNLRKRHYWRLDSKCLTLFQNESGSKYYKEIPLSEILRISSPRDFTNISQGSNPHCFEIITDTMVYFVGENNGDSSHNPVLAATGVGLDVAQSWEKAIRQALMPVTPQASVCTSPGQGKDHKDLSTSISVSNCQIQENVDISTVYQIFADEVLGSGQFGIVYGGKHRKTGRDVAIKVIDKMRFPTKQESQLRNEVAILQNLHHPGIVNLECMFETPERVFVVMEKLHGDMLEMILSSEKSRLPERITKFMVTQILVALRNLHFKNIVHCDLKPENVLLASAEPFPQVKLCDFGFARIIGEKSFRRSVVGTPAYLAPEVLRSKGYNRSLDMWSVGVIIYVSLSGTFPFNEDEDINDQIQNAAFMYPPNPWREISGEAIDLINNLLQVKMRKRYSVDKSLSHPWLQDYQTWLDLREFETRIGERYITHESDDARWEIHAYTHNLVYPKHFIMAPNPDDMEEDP
Description: as §1, §2

CSNK1A1L = molecular target: T5, CSNK1A1L (Homo sapiens, UniProt Q8N752)
T5 construct: purchased Ambit Biosciences (KINOMEscan)
T5 sequence (Q8N752 1-337): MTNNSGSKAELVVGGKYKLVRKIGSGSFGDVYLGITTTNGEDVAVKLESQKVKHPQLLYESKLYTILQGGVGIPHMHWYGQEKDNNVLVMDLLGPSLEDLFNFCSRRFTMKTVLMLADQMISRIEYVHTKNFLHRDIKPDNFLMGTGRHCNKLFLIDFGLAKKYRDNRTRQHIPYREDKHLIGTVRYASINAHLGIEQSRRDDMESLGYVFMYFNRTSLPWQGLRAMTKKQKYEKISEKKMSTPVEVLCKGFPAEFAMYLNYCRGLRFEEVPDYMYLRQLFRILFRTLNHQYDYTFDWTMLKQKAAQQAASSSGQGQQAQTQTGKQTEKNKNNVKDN
Description: as §1, §2

T1 sequence (P06239 whole entry): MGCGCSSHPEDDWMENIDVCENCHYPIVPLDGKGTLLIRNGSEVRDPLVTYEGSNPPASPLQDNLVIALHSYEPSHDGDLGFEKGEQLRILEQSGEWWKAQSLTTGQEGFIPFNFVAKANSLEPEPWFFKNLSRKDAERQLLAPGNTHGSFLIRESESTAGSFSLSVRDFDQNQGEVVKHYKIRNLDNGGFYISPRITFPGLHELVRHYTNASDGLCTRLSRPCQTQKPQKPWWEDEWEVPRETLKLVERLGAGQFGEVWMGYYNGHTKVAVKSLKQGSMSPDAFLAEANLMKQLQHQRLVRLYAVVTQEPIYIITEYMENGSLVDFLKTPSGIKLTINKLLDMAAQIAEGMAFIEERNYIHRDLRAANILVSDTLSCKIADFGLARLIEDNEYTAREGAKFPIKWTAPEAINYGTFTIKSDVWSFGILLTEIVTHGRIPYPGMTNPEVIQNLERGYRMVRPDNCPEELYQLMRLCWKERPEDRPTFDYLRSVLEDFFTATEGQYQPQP
T3 sequence (P37173 23-567): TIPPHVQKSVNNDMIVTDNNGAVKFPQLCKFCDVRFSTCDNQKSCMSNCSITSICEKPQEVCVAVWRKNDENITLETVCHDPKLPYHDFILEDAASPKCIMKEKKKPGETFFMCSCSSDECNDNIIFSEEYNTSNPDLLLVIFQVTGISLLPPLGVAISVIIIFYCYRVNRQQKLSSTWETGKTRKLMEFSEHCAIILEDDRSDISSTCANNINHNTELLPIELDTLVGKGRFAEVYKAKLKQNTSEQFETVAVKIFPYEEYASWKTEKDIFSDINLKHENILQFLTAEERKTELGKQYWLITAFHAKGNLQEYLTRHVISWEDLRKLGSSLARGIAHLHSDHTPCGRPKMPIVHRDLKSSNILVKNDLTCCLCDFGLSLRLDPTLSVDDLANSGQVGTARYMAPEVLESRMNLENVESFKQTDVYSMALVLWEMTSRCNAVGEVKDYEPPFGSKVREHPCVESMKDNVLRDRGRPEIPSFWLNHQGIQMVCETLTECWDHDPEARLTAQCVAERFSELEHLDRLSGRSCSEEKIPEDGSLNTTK

SMILES: Fc1ccc(-c2c(-c3ccncc3)[nH]c3nccnc23)cc1 [Compound 122]
- inhibition at 10 µM (LCK; LCK, 10 µM, read-out: % Competition): 71%
- inhibition at 10 µM (EPHA8; EPHA8, 10 µM, read-out: % Competition): 71%
- inhibition at 10 µM (TGFBR2; TGFBR2, 10 µM, read-out: % Competition): 98%
- inhibition at 10 µM (PRKD3; PRKD3 (PKD3), 10 µM, read-out: % Competition): 98%
- inhibition at 10 µM (CSNK1A1L; CSNK1A1L, 10 µM, read-out: % Competition): 95%

SMILES: CC(O)CNc1cc(-c2[nH]c3cccnc3c2-c2ccc(F)cc2)ccn1 (stereo not drawn) [Compound 140]
- inhibition at 10 µM (LCK; read-out: % Competition): < 50%
- inhibition at 10 µM (EPHA8; read-out: % Competition): < 50%
- inhibition at 10 µM (TGFBR2; read-out: % Competition): < 50%
- inhibition at 10 µM (PRKD3; read-out: % Competition): 96%
- inhibition at 10 µM (CSNK1A1L; read-out: % Competition): 86%

SMILES: Fc1ccc(-c2c(-c3ccncc3)[nH]c3nccnc23)cc1 [RO1155697-000-005]
- inhibition at 10 µM (LCK; LCK, compound concentration 10 uM, read-out: Percent Competition): 71%
- inhibition at 10 µM (EPHA8; EPHA8, compound concentration 10 uM, read-out: Percent Competition): 71%
- inhibition at 10 µM (TGFBR2; TGFBR2, compound concentration 10 uM, read-out: Percent Competition): 98%
- inhibition at 10 µM (PRKD3; PRKD3, compound concentration 10 uM, read-out: Percent Competition): 98%
- inhibition at 10 µM (CSNK1A1L; CSNK1A1L, compound concentration 10 uM, read-out: Percent Competition): 95%
